Earlier results in US20240251900A1, “PATCH FOR TARGETED DELIVERY OF HAIR COMPOSITION AND METHOD FOR APPLYING SAME” (Better Not Younger Corporation, priority 2022, published 2024).

Test system: hair follicle
Details: Capixyl techsheet page 38

acetyl tetrapeptide-3
stimulation of hair growth versus market reference Minoxidil: stimulate hair growth better than the market reference, Minoxidil
